Compound	melting point [°C]
Cc1cccc(CNc2ncnc3[nH]c(-c4ccc(CN5CCOCC5)cc4)cc23)c1 [Example 107e, (3-Methyl-benzyl)-[6-(4-morpholin-4-ylmethyl-phenyl)-7H-pyrrolo[2,3-d]pyrimidin-4-yl]-amine]	259 to 261
C[C@@H](Nc1ncnc2[nH]c(-c3ccc(CNC(=O)CN4CCCC4)cc3)cc12)c1ccccc1 [Example 41, N-{4-[4-((R)-1-Phenyl-ethylamino)-7H-pyrrolo[2,3-d]pyrimidin-6-yl]-benzyl}-2-pyrrolidin-1-yl-acetamide]	196 to 198
CCN1CCN(CC(=O)NCc2ccc(-c3cc4c(N[C@H](C)c5ccccc5)ncnc4[nH]3)cc2)CC1 [Example 45, 2-(4-Ethyl-piperazin-1-yl)-N-{4-[4-((R)-1-phenyl-ethylamino)-7H-pyrrolo[2,3-d]pyrimidin-6-yl]-benzyl}-acetamide]	121 to 124
COc1cc(CNc2ncnc3[nH]c(-c4ccc(CN5CCN(C)CC5)cc4)cc23)ccn1 [Example 125, (2-Methoxy-pyridin-4-ylmethyl)-{6-[4-(4-methyl-piperazin-1-ylmethyl)-phenyl]-7H-pyrrolo[2,3-d]pyrimidin-4-yl}-amine]	211 to 212
CC(C)NCc1ccc(-c2cc3c(N[C@H](C)c4ccccc4)ncnc3[nH]2)cc1 [Example 16e, {6-[4-(isopropylamino-methyl)-phenyl]-7H-pyrrolo[2,3-d]pyrimidin-4-yl}-((R)-1-phenyl-ethyl)-amine]	266 to 268
c1ccc(COc2ccc(Nc3ncnc4[nH]c(-c5ccc(CN6CCCCC6)cc5)cc34)cc2)cc1 [Example 19, (4-Benzyloxy-phenyl)-[6-(4-piperidin-1-ylmethyl-phenyl)-7H-pyrrolo[2,3-d]pyrimidin-4-yl]-amine]	256 to 258
CN(C)CC(=O)NCc1ccc(-c2cc3c(Nc4ccc(F)c(Cl)c4)ncnc3[nH]2)cc1 [Example 46, N-{4-[4-(3-Chloro-4-fluoro-phenylamino)-7H-pyrrolo[2,3-d]pyrimidin-6-yl]-benzyl}-2-dimethylamino-acetamide]	278 to 282
CN1CCN(CC(=O)NCc2ccc(-c3cc4c(Nc5ccc(F)c(Cl)c5)ncnc4[nH]3)cc2)CC1 [Example 50, N-{4-[4-(3-Chloro-4-fluoro-phenylamino)-7H-pyrrolo[2,3-d]pyrimidin-6-yl]-benzyl}-2-(4-methyl-piperazin-1-yl)-acetamide]	246 to 249
Fc1ccc(Nc2ncnc3[nH]c(-c4cccc(CN5CCCCC5)c4)cc23)cc1Cl [Example 38, (3-Chloro-4-fluoro-phenyl)-[6-(3-piperidin-1-ylmethyl-phenyl)-7H-pyrrolo[2,3-d]pyrimidin-4-yl]-amine]	233 to 235
CCN(CC)Cc1ccc(-c2cc3c(NCc4cccc(Cl)c4)ncnc3[nH]2)cc1 [Example 87, (3-Chloro-benzyl)-[6-(4-diethylaminomethyl-phenyl)-7H-pyrrolo[2,3-d]pyrimidin-4-yl]-amine]	231 to 233
C[C@@H](Nc1ncnc2[nH]c(-c3cccc(CN4CCCCC4)c3)cc12)c1ccccc1 [Example 30, ((R)-1-Phenyl-ethyl)-[6-(3-piperidin-1-ylmethyl-phenyl)-7H-pyrrolo[2,3-d]pyrimidin-4-yl]-amine]	108 to 110
CN(C)Cc1ccc(-c2cc3c(NCc4ccccc4Cl)ncnc3[nH]2)cc1 [Example 90, (2-Chloro-benzyl)-[6-(4-dimethylaminomethyl-phenyl)-7H-pyrrolo[2,3-d]pyrimidin-4-yl]-amine]	256 to 258
CCN1CCN(CC(=O)NCc2ccc(-c3cc4c(Nc5ccc(F)c(Cl)c5)ncnc4[nH]3)cc2)CC1 [Example 47, N-{4-[4-(3-Chloro-4-fluoro-phenylamino)-7H-pyrrolo[2,3-d]pyrimidin-6-yl]-benzyl}-2-(4-ethyl-piperazin-1-yl)-acetamide]	245 to 247
COc1cccc(CNc2ncnc3[nH]c(-c4ccc(CN5CCCC5)cc4)cc23)c1 [Example 106, (3-Methoxy-benzyl)-[6-(4-pyrrolidin-1-ylmethyl-phenyl)-7H-pyrrolo[2,3-d]pyrimidin-4-yl]-amine]	220 to 222
C[C@@H](Nc1ncnc2[nH]c(-c3ccc(CNC4CCOCC4)cc3)cc12)c1ccccc1 [Example 16b, ((R)-1-Phenyl-ethyl)-(6-{4-[(tetrahydro-pyran-4-ylamino)-methyl]-phenyl}-7H-pyrrolo[2,3-d]pyrimidin-4-yl)-amine]	253 to 255
Clc1ccc(Cl)c(CNc2ncnc3[nH]c(-c4ccc(CN5CCOCC5)cc4)cc23)c1 [Example 99, (2,5-Dichloro-benzyl)-[6-(4-morpholin-4-ylmethyl-phenyl)-7H-pyrrolo[2,3-d]pyrimidin-4-yl]-amine]	272 to 274
CC(C)NCc1ccc(-c2cc3c(Nc4ccc(F)c(Cl)c4)ncnc3[nH]2)cc1 [Example 8d, (3-Chloro-4-fluoro-phenyl)-{6-[4-(iso-propylamino-methyl)-phenyl]-7H-pyrrolo[2,3-d]pyrimidin-4-yl}-amine]	282 to 284
C[C@@H](Nc1ncnc2[nH]c(-c3cccc(CN4CCOCC4)c3)cc12)c1ccccc1 [Example 31, [6-(3-Morpholin-4-ylmethyl-phenyl)-7H-pyrrolo[2,3-d]pyrimidin-4-yl]-((R)-1-phenyl-ethyl)-amine]	242 to 243
CCN(CC)Cc1ccc(-c2cc3c(Nc4ccc(OCc5ccccc5)cc4)ncnc3[nH]2)cc1 [Example 21, (4-Benzyloxy-phenyl)-[6-(4-diethylaminomethyl-phenyl)-7H-pyrrolo[2,3-d]pyrimidin-4-yl]-amine]	271 to 273
CN1CCN(Cc2cccc(-c3cc4c(Nc5ccc(F)c(Cl)c5)ncnc4[nH]3)c2)CC1 [Example 37, (3-Chloro-4-fluoro-phenyl)-{6-[3-(4-methyl-piperazin-1-ylmethyl)-phenyl]-7H-pyrrolo[2,3-d]pyrimidin-4-yl}-amine]	221 to 223
C[C@@H](Nc1ncnc2[nH]c(-c3ccc(CNC(C)(C)C)cc3)cc12)c1ccccc1 [Example 16d, {6-[4-(tert-Butylamino-methyl)-phenyl]-7H-pyrrolo[2,3-d]pyrimidin-4-yl}-((R)-1-phenyl-ethyl)-amine]	> 300
O=C(CN1CCCCC1)NCc1cccc(-c2cc3c(Nc4ccc(F)c(Cl)c4)ncnc3[nH]2)c1 [Example 66, N-{3-[4-(3-Chloro-4-fluoro-phenylamino)-7H-pyrrolo[2,3-d]pyrimidin-6-yl]-benzyl}-2-piperidin-1-yl-acetamide]	252 to 254
CCN(CC)CCNCc1ccc(-c2cc3c(N[C@H](C)c4ccccc4)ncnc3[nH]2)cc1 [Example 16c, N,N-Diethyl-N′-{4-[4-((R)-1-phenyl-ethyl-amino)-7H-pyrrolo[2,3-d]pyrimidin-6-yl]-benzyl}-ethane-1,2-diamine]	145 to 150
O=C(CCN1CCCCC1)NCc1ccc(-c2cc3c(Nc4ccc(F)c(Cl)c4)ncnc3[nH]2)cc1 [Example 61, N-{4-[4-(3-Chloro-4-fluoro-phenylamino)-7H-pyrrolo[2,3-d]pyrimidin-6-yl]-benzyl}-3-piperidin-1-yl-propionamide]	230 to 235

Source: patent publication US7323469B2, “7H-pyrrolo[2,3-d]pyrimidine derivatives” (Novartis AG, priority 2001, dated 2008)
